Consider 13 compounds from US20170121322A1, “BET-PROTEIN INHIBITING 3,4-DIHYDROPYRIDO[2,3-B]PYRAZINONES WITH META-SUBSTITUTED AROMATIC AMINO- OR ETHER GROUPS” (Bayer Pharma Aktiengesellschaft, priority 2014, published 2017).

Each structure is given as a SMILES string.

One assay relates to CHL-1 cells. The assay can be described thus: Cell proliferation assay CHL-1 (alamarBlue). Conditions: Homo sapiens, melanoma (BRAF wild-type) cells, 96 hours. The class given is cell-based. Here is the method: (§1) In accordance with the invention, the ability of the substances to inhibit cell proliferation was determined. Cell viability was determined by means of the alamarBlue® reagent (Invitrogen) in a Victor X3 Multilabel Reader (Perkin Elmer). The excitation wavelength was 530 nm and the emission wavelength […].
The CHL-1 cells (ATCC, CRL-9446) were seeded at a concentration of 1000 cells/well in 100 μl of growth medium (DMEM with glutamine, 10% FCS) on 96-well microtitre plates.
(§2) After overnight incubation at 37° C., the fluorescence values (CI values) were determined. Then the plates were treated with various substance dilutions (1E-5 M, 3E-6 M, 1E-6 M, 3E-7 M, 1E-7 M, 3E-8 M, 1E-8 M) and incubated at 37° C. over 96 hours (MOLM-13, B16F10, CHL-1 cells) or 120 hours (MOLP-8 cells). Subsequently, the fluorescence values were determined (CO values). For the data analysis, the CI values were subtracted from the CO values and the results were compared between cells which had been treated with various dilutions of the substance or only with buffer solution. The IC50 values (substance concentration needed for 50% inhibition of cell proliferation) were calculated therefrom.
(§3) The substances were tested in the cell lines in Table 2, which represent the indications specified by way of example: […]
(In general: Resazurin is reduced to fluorescent resorufin, in cell work by metabolically active cells.)

In the next assay the test system is B16F10 cells. The experiment in a line: Cell proliferation assay B16F10 (alamarBlue). The class given is cell-based. Conditions: Mus musculus, B16-F10, melanoma (BRAF wild-type) cells, 96 hours. Here is the method: as §1
The B16F10 cells (ATCC, CRL-6475) were seeded at a concentration of 300-500 cells/well in 100 μl of growth medium (DMEM with phenol red, 10% FCS) on 96-well microtitre plates.
as §2, §3

A further assay has as its system MOLM-13 cells. The assay can be described thus: Cell proliferation assay MOLM-13, method 1 (alamarBlue). The class given is cell-based. To be noted: Homo sapiens, acute myeloid leukaemia cells, 4000 cells/well, 96-well, 96 hours. The protocol:
as §1
The MOLM-13 cells (DSMZ, ACC 554) were seeded at a concentration of 4000 cells/well in 100 μl of growth medium (RPMI1640, 10% FCS) on 96-well microtitre plates (method 1).
as §2, §3

In assay [1] the target is T1, BRD4 bromo domain 2 [BRD4(2)] (Homo sapiens, UniProt O60885).
T1 construct: N-terminally His6-tagged BRD4(2) (amino acids 357-445); made in house; host or cells: E. coli
The experiment in a line: BRD4(2)/acetylated peptide H4 TR-FRET binding assay. Conditions: His6-BRD4(2) (aa 357-445) vs acetylated histone H4 peptide. From the text:
To assess the BRD4(2) binding strength of the substances described in this application, the ability thereof to inhibit the interaction between BRD4(2) and acetylated histone H4 in a dose-dependent manner was quantified.
For this purpose, a time-resolved fluorescence resonance energy transfer (TR-FRET) assay was used, which measures the binding between N-terminally His6-tagged BRD4(2) (amino acids 357-445) and a synthetic acetylated histone H4 (Ac-H4) peptide with sequence SGRGK(Ac)GGK(Ac)GLGK(Ac)GGAK(Ac)RHRKVLRDNGSGSK-biotin. The recombinant BRD4(2) protein produced in-house according to Filippakopoulos et al., Cell, 2012, 149:214-231 was expressed in E. coli and purified by means of (Ni-NTA) affinity and (Sephadex G-75) size exclusion chromatography. The Ac-H4 peptide can be purchased, for example, from Biosyntan (Berlin, Germany).
In the assay, typically 11 different concentrations of each substance (0.1 nM, 0.33 nM, 1.1 nM, 3.8 nM, 13 nM, 44 nM, 0.15 μM, 0.51 μM, 1.7 μM, 5.9 μM and 20 μM) were analysed as duplicates on the same microtitre plate. For this purpose, 100-fold concentrated solutions in DMSO were prepared by serial dilutions (1:3.4) of a 2 mM stock solution into a clear, 384-well microtitre plate (Greiner Bio-One, Frickenhausen, Germany). From this, 50 nl were transferred into a black test plate (Greiner Bio-One, Frickenhausen, Germany). The test was started by the addition of 2 μl of a 2.5-fold concentrated BRD4(2) solution (final concentration typically 100 nM in the 5 μl of reaction volume) in aqueous assay buffer [50 mM HEPES pH 7.5, 50 mM sodium chloride (NaCl); 50 mM potassium fluoride (KF); 0.25 mM CHAPS and 0.05% serum albumin (BSA)] to the substances in the test plate. This was followed by a 10-minute incubation step at 22° C. for the pre-equilibration of putative complexes between BRD4(2) and the substances.
The mixture was then incubated in the dark at 22° C. for one hour and then at 4° C. for at least 3 hours and for no longer than overnight. The formation of BRD4(2)/Ac-H4 complexes was determined by the measurement of the resonance energy transfer from the streptavidin-Eu chelate to the anti-6His-XL665 antibody present in the reaction. For this purpose, the fluorescence emission was measured at 620 nm and 665 nm after excitation at 330-350 nm in a TR-FRET measuring instrument, for example a Rubystar or Pherastar (both from BMG Lab Technologies, Offenburg, Germany) or a Viewlux (Perkin-Elmer). The ratio of the emissions at 665 nm and at 622 nm was taken as an indicator of the amount of BRD4(2)/Ac-H4 complexes formed.
The data (ratios) obtained were normalized, with 0% inhibition corresponding to the mean from the measurements for a set of controls (typically 32 data points) in which all the reagents were present. In these, in place of test substances, 50 nl of DMSO (100%) were used. Inhibition of 100% corresponded to the mean from the measurements for a set of controls (typically 32 data points) in which all the reagents except BRD4(2) were present. The IC50 was determined by regression analysis based on a 4-parameter equation (minimum, maximum, IC50, Hill; Y=Max+(Min−Max)/(1+(X/IC50)Hill)).
(In general: TR-FRET usually uses a lanthanide donor and a delayed reading to cut background.)

For `CC(C)S(=O)(=O)c1cccc(Nc2ccc3c(n2)N(C2CCN(C)CC2)[C@H](C)C(=O)N3C)c1` [Example 19, (3R)-6-{[3-(Isopropylsulphonyl)phenyl]amino}-1,3-dimethyl-4-(1-methylpiperidin-4-yl)-3,4-dihydropyrido[2,3-b]pyrazin-2(1H)-one], the IC50 (in general, the midpoint of a concentration-inhibition curve) in the assay on CHL-1 cells was found to be 17 nM; with B16F10 cells, 45 nM; in the assay with MOLM-13 cells, 13 nM; in assay [1], 47 nM.

For the compound `CC(C)S(=O)(=O)c1ccc(OC(F)(F)F)c(Nc2ccc3c(n2)N(C2CCN(C)CC2)[C@H](C)C(=O)N3C)c1` [Example 20, (3R)-6-{[5-(Isopropylsulphonyl)-2-(trifluoromethoxy)phenyl]amino}-1,3-dimethyl-4-(1-methylpiperidin-4-yl)-3,4-dihydropyrido[2,3-b]pyrazin-2(1H)-one], the IC50 is 20 nM in the assay on CHL-1 cells, 49 nM in the assay with B16F10 cells, 19 nM in the assay with MOLM-13 cells and 65 nM in assay [1].

Consider `COc1ccc(S(=O)(=O)C(F)(F)F)cc1Nc1ccc2c(n1)N(C1CCN(C)CC1)[C@H](C)C(=O)N2C` [Example 21, (3R)-6-({2-Methoxy-5-[(trifluoromethyl)sulphonyl]phenyl}amino)-1,3-dimethyl-4-(1-methylpiperidin-4-yl)-3,4-dihydropyrido[2,3-b]pyrazin-2(1H)-one], for which the IC50 came to 16 nM with CHL-1 cells, 52 nM in the assay with B16F10 cells, 16 nM with MOLM-13 cells and 58 nM in assay [1].

For `COc1ccc(S(=O)(=O)C2CCOCC2)cc1Nc1ccc2c(n1)N(C1CCN(C)CC1)[C@H](C)C(=O)N2C` [Example 22, (3R)-6-{[2-Methoxy-5-(tetrahydro-2H-pyran-4-ylsulphonyl)phenyl]amino}-1,3-dimethyl-4-(1-methylpiperidin-4-yl)-3,4-dihydropyrido[2,3-b]pyrazin-2(1H)-one], the IC50 in the assay with CHL-1 cells was 21 nM; in the assay with B16F10 cells it was 140 nM; in the assay on MOLM-13 cells, 99 nM; in assay [1] it was 54 nM.

In the case of `COc1ccc(S(=O)(=O)C(C)C)cc1Nc1ccc2c(n1)N(C1CCNCC1)[C@H](C)C(=O)N2C` [Example 26, (3R)-6-{[5-(Isopropylsulphonyl)-2-methoxyphenyl]amino}-1,3-dimethyl-4-(piperidin-4-yl)-3,4-dihydropyrido[2,3-b]pyrazin-2(1H)-one], the IC50 is 22 nM in the assay on CHL-1 cells, 147 nM in the assay on B16F10 cells, 10 nM with MOLM-13 cells and 52 nM in assay [1].

For `COc1ccc(S(C)(=O)=O)cc1Nc1ccc2c(n1)N(C1CCNCC1)[C@H](C)C(=O)N2C` [Example 27, (3R)-6-{[2-Methoxy-5-(methylsulphonyl)phenyl]amino}-1,3-dimethyl-4-(piperidin-4-yl)-3,4-dihydropyrido[2,3-b]pyrazin-2(1H)-one], the figures for the IC50 (in the assay on CHL-1 cells; in the assay with MOLM-13 cells; in assay [1]) were 311 nM, 69 nM and 83 nM, respectively.

As to `COc1ccc(S(=O)(=O)C(C)C)cc1Nc1ccc2c(n1)N(C1CCN(CC(F)(F)F)CC1)[C@H](C)C(=O)N2C` [Example 28, (3R)-6-{[5-(Isopropylsulphonyl)-2-methoxyphenyl]amino}-1,3-dimethyl-4-[1-(2,2,2-trifluoroethyl)piperidin-4-yl]-3,4-dihydropyrido[2,3-b]pyrazin-2(1H)-one], the IC50 in the assay on CHL-1 cells came to 25 nM; in the assay on B16F10 cells, 21 nM; in the assay on MOLM-13 cells, 26 nM; in assay [1], 63 nM.

In the case of `COc1ccc(S(=O)(=O)C(C)C)cc1Nc1ccc2c(n1)N(C1CCN(CC(F)F)CC1)[C@H](C)C(=O)N2C` [Example 29, (3R)-4-[1-(2,2-Difluoroethyl)piperidin-4-yl]-6-{[5-(isopropylsulphonyl)-2-methoxyphenyl]amino}-1,3-dimethyl-3,4-dihydropyrido[2,3-b]pyrazin-2(1H)-one], the results for the IC50 (in the assay on B16F10 cells; in assay [1]) were 40 nM and 67 nM, respectively.

For `COc1ccc(S(=O)(=O)C(C)C)cc1Nc1ccc2c(n1)N(C1CCN(CCC(F)(F)F)CC1)[C@H](C)C(=O)N2C` [Example 31, (3R)-6-{[5-(Isopropylsulphonyl)-2-methoxyphenyl]amino}-1,3-dimethyl-4-[1-(3,3,3-trifluoropropyl)piperidin-4-yl]-3,4-dihydropyrido[2,3-b]pyrazin-2(1H)-one], the results for the IC50 (with CHL-1 cells; in the assay on MOLM-13 cells; in assay [1]) were 12 nM, 14 nM and 68 nM, respectively.

Turning to `COc1ccc(S(=O)(=O)C2CCOCC2)cc1Nc1ccc2c(n1)N(C1CCOCC1)[C@H](C)C(=O)N2C` [Example 34, (3R)-6-{[2-Methoxy-5-(tetrahydro-2H-pyran-4-ylsulphonyl)phenyl]amino}-1,3-dimethyl-4-(tetrahydro-2H-pyran-4-yl)-3,4-dihydropyrido[2,3-b]pyrazin-2(1H)-one], the IC50 in the assay with CHL-1 cells turned out to be 30 nM; in the assay with B16F10 cells it was 32 nM; with MOLM-13 cells, 32 nM; in assay [1], 44 nM.

With `COc1ccc(S(=O)(=O)C2CCC2)cc1Nc1ccc2c(n1)N(C1CCOCC1)[C@H](C)C(=O)N2C` [Example 35, (3R)-6-{[5-(Cyclobutylsulphonyl)-2-methoxyphenyl]amino}-1,3-dimethyl-4-(tetrahydro-2H-pyran-4-yl)-3,4-dihydropyrido[2,3-b]pyrazin-2(1H)-one], the IC50 in the assay with CHL-1 cells was 10 nM; in the assay with B16F10 cells, 16 nM; in the assay on MOLM-13 cells, 12 nM; in assay [1] it was 51 nM.

`COc1ccc(S(=O)(=O)C(F)(F)F)cc1Nc1ccc2c(n1)N(C1CCOCC1)[C@H](C)C(=O)N2C` [Example 39, (3R)-6-({2-Methoxy-5-[(trifluoromethyl)sulphonyl]phenyl}amino)-1,3-dimethyl-4-(tetrahydro-2H-pyran-4-yl)-3,4-dihydropyrido[2,3-b]pyrazin-2(1H)-one]: the IC50 in the assay on B16F10 cells was 84 nM; in the assay on MOLM-13 cells it was 137 nM; in assay [1], 56 nM.

Take `COc1cc(Nc2ccc3c(n2)N(C2CCOCC2)[C@H](C)C(=O)N3C)cc(S(C)(=O)=O)c1` [Example 40, (3R)-6-{[3-Methoxy-5-(methylsulphonyl)phenyl]amino}-1,3-dimethyl-4-(tetrahydro-2H-pyran-4-yl)-3,4-dihydropyrido[2,3-b]pyrazin-2(1H)-one]: the half-inhibitory concentration (IC50) in the assay with B16F10 cells stood at 269 nM; in the assay with MOLM-13 cells it was 121 nM; in assay [1], 94 nM.
